Assays:
[1] = LNP hydrodynamic diameter and polydispersity by DLS (Example 1 LNPs); type: physicochemical; settings: LNPs prepared according to Example 1, total lipid to NA mass ratio 11.7
Description: LNPs were prepared with a total lipid to NA mass ratio of 11.7. LNPs were formed by microfluidic mixing of the lipid and NA solutions using a Precision Nanosystems NanoAssemblr Spark or Benchtop series Instruments, according to the manufacturers protocol. A ratio of aqueous to organic solvent of approximately 2:1 or 3:1 was maintained during mixing using differential flow rates. After mixing, LNPs were collected, diluted in PBS (approximately 1:1 v/v). Further buffer exchange was conducted using dialysis in PBS at 4° C. for 4 to 24 hours against a 20 kDa filter. After this initial dialysis, each individual LNP preparation was characterized via dynamic light scattering (DLS) to measure the size (e.g., diameter) and polydispersity. In addition, pKa of a subpopulation of LNPs was measured via a 2-(p-toluidino)-6-napthalene sulfonic acid (TNS) assay. LNPs falling within specific diameter and polydispersity ranges are pooled, and further dialyzed against phosphate buffer saline (PBS) at 4° C. for 1 to 4 hours against a 100 kDa dialysis cassette. After the second dialysis, LNPs were sterile filtered using […] filter and stored at 4° C. for further use.
DLS-LNP hydrodynamic diameter and polydispersity index (PDI) were measured using high throughput dynamic light scattering (DLS) (DynaPro plate reader II, Wyatt). LNPs were diluted 1×PBS to an appropriate concentration and analyzed.
Lipid nanoparticle components were dissolved in 100% ethanol at specified lipid component molar ratios. Nucleic acid (NA) cargo was dissolved in 10 mM citrate, 100 mM NaCl, pH 4.0, resulting in a concentration of NA cargo of approximately 0.22 mg/mL. In some embodiments, NA cargos included both a functional NA and a reporter DNA barcode mixed at mass ratios of 1:10 to 10:1 functional NA to barcode. LNPs were formulated with a total lipid to NA mass ratio of 11.7. LNPs were formed by microfluidic mixing of the lipid and NA solutions using a Precision Nanosystems NanoAssemblr Spark or Benchtop series Instruments, according to the manufacturer's protocol. A 2:1 or 3:1 ratio of aqueous to organic solvent was maintained during mixing using differential flow rates. After mixing, LNPs were collected, diluted in PBS (approximately 1:1 v/v), and further buffer exchange was conducted using dialysis in PBS at 4° C. for 8 to 24 hours against a 20 kDa filter. After this initial dialysis, each individual LNP formulation was characterized via DLS to measure the size and polydispersity, and the pKa of a subpopulation of LNPs is measured via TNS assay. After dialysis, LNPs were sterile filtered using 0.22 micron sterile filter and stored at 4° C. for further use.
LNP hydrodynamic diameter and polydispersity index (PDI) were measured using high throughput dynamic light scattering (DLS) (DynaPro plate reader II, Wyatt). LNPs were diluted 1×PBS to an appropriate concentration and analyzed.

[2] = LNP encapsulation efficiency, unlysed vs lysed LNPs, Qubit kit (Example 1 LNPs); type: physicochemical; settings: LNPs prepared according to Example 1; total lipid to NA mass ratio 11.7
Description: Concentration of NA was determined by Qubit microRNA kit (for siRNA) or HS RNA kit (for mRNA) per manufacturer's instructions. Encapsulation efficiency was determined by measuring nucleic acid concentration in unlysed and lysed LNPs. Encapsulation efficiency was determined by measuring unlysed and lysed LNPs.

[3] = LNP hydrodynamic diameter and PDI by DLS (Example 16 LNPs, Stunner); type: physicochemical; settings: Example 16 LNPs: 47.5% Ionizable Lipid: 40% cholesterol: 2.5% PEG-2000 DMG: 10% DPSC, N/P 4-8
Description: (§1) LNPs were prepared with 47.5% Ionizable Lipid (e.g., a compound provided herein): 40% cholesterol: 2.5% PEG-2000 DMG: 10% DPSC and an N/P ratio range of 4-8. LNPs were formed by microfluidic mixing of the lipid and NA solutions using a Precision Nanosystems NanoAssemblr Spark or Benchtop series Instruments, according to the manufacturer's protocol. A ratio of aqueous to organic solvent of approximately 2:1 or 3:1 was maintained during mixing using differential flow rates. After mixing, LNPs were collected, diluted in phosphate buffer saline (PBS) or Tris-buffered saline (TBS) (approximately 1:1 v/v). Further buffer exchange was conducted using dialysis in PBS or TBS at 4° C. for 4 to 24 hours against a 20 kDa filter. After this initial dialysis, each individual LNP preparation was characterized via dynamic light scattering (DLS) to measure the size (e.g., diameter) and polydispersity. LNPs falling within specific diameter and polydispersity ranges were pooled, and further dialyzed against PBS or TBS at 4° C. for 1 to 4 hours against a 100 kDa dialysis cassette. After the second dialysis, LNPs were sterile filtered using 0.22 μm filter and stored at 4° C. for further use.
LNP hydrodynamic diameter and polydispersity index (PDI) were measured using high throughput dynamic light scattering (DLS) (Stunner, Unchained Labs). LNPs were diluted 1×TBS or PBS to an appropriate concentration and analyzed.

[4] = LNP encapsulation efficiency by Ribogreen assay (Example 16 LNPs); type: physicochemical; settings: Example 16 LNPs: 47.5% Ionizable Lipid: 40% cholesterol: 2.5% PEG-2000 DMG: 10% DPSC, N/P 4-8
Description: as §1
RNA concentration and encapsulation efficiency were determined by Ribogreen assay (BioTek Synergy LX plate reader).

human ALAS1 target site = test: In vivo base editing with LNP carrying adenine base editor mRNA and sgRNA, targeted deep sequencing; settings: 3.0 mg/kg dose IV; NBSGW mice engrafted with human CD34+ cells; four to six days post-dose
Description: Exemplary LNP preparations were selected to determine each preparation's ability to perform base editing in a NBSGW mouse model as described herein.
Lipid nanoparticle components were dissolved in 100% ethanol at specified lipid component molar ratios. mRNA encoding an adenine base editor and a chemically-modified sgRNA were dissolved at a mass ratio of 1:1 in 10 mM citrate, pH 3.0, resulting in a concentration of NA cargo of approximately 0.2 mg/mL.
LNP preparations were formulated with molar ratios of 50% Ionizable Lipid: 38.5% Cholesterol: 1.5% PEG2000-DMG: 10% DSPC total lipid to NA mass ratio of 19 to 1.
LNP preparations were formed by microfluidic mixing of the lipid and NA solutions using a Precision Nanosystems NanoAssemblr Spark series Instruments, according to the manufacturer's protocol.
A 3:1 ratio of aqueous to organic solvent was maintained during mixing using differential flow rates. […] After this initial dialysis, each individual LNP preparation was characterized via dynamic light scattering (DLS) to measure size and polydispersity. pKa of a subpopulation of LNP preparations was measured via TNS assay. […]
Age-matched mice were also used to administer vehicle (1×PBS) via tail vein injection as a control. […] Base editing was determined by performing targeted deep sequencing analysis at the human ALAS1 target site using extracted genomic DNA. […]

SMILES | Mean Diameter [1] | Mean PDI [1] | Mean Encapsulation Efficiency [2] | Mean Diameter [3] | Mean PDI [3] | Mean Encapsulation Efficiency [4] | base editing in bulk bone marrow (human ALAS1 target site)
CC/C=C\CCCCOC(CCC(=O)OCCCCCCCN(CCO)CCCN(CCCCCCCOC(=O)CCC(OCCCC/C=C\CC)OCCCC/C=C\CC)CCCCCCCOC(=O)CCC(OCCCC/C=C\CC)OCCCC/C=C\CC)OCCCC/C=C\CC [Example 7-2] | 96.1 nm | 10.9% | 96.8% |  |  |  | 2.2%
CC/C=C\CCCCOC(CCC(=O)OCCCCCCN(CCO)CCN(CCCCCCCCCOC(=O)C(CCCC)CCCCCC)CCCCCCCCCOC(=O)C(CCCC)CCCCCC)OCCCC/C=C\CC (stereo not shown) [Example 7-15] | 77.9 nm | 9.2% | 95.6% | 77.3 nm | 0.10 | 70.1% | 
CC/C=C\CCCCOC(CCC(=O)OCCCCCCCN(CCCCCCCOC(=O)CCC(OCCCC/C=C\CC)OCCCC/C=C\CC)CCCN(CCO)CCCCCCCC(=O)OCCCCCCCCC)OCCCC/C=C\CC [Example 7-4, ((3-((2-hydroxyethyl)(8-(nonyloxy)-8-oxooctyl)amino)propyl)azanediyl)bis(heptane-7,1-diyl) bis(4,4-bis(((Z)-oct-5-en-1-yl)oxy)butanoate)] | 106.9 nm | 15.4% | 97.5% | 95.1 nm | 0.10 | 66.1% | 

More lines, main results first:

Mean Diameter [1] | Mean PDI [1] | Mean Encapsulation Efficiency [2] | Mean Diameter [3] | Mean PDI [3] | Mean Encapsulation Efficiency [4] | SMILES | base editing in bulk bone marrow (human ALAS1 target site)
89.3 nm | 14.9% | 94.7% | 74.4 nm | 0.11 | 76.5% | CC/C=C\CCCCOC(CCC(=O)OCCCCCCN(CCCCCCOC(=O)CCC(OCCCC/C=C\CC)OCCCC/C=C\CC)CCN(CCO)CCCCCCCC(=O)OCCCCCCCCC)OCCCC/C=C\CC [Example 7-12, ((2-((2-hydroxyethyl)(8-(nonyloxy)-8-oxooctyl)amino)ethyl)azanediyl)bis(hexane-6,1-diyl) bis(4,4-bis(((Z)-oct-5-en-1-yl)oxy)butanoate)] | 
100.8 nm | 13.2% | 92.9% | 90.6 nm | 0.13 | 70.0% | CC/C=C\CCCCOC(CCC(=O)OCCCCCCCN(CCCCCCCOC(=O)CCC(OCCCC/C=C\CC)OCCCC/C=C\CC)CCN(CCCO)CCCCCCCC(=O)OCCCCCCCCC)OCCCC/C=C\CC [Example 7-19, ((2-((3-hydroxypropyl)(8-(nonyloxy)-8-oxooctyl)amino)ethyl)azanediyl)bis(heptane-7,1-diyl) bis(4,4-bis(((Z)-oct-5-en-1-yl)oxy)butanoate)] | 
93.7 nm | 14.3% | 95.9% | 86.2 nm | 0.10 | 75.4% | CC/C=C\CCCCOC(CCC(=O)OCCCCCCCN(CCCCCCCOC(=O)CCC(OCCCC/C=C\CC)OCCCC/C=C\CC)CCN(CCO)CCCCCCCC(=O)OCCCCCCCCC)OCCCC/C=C\CC [Example 7-13, ((2-((2-hydroxyethyl)(8-(nonyloxy)-8-oxooctyl)amino)ethyl)azanediyl)bis(heptane-7,1-diyl) bis(4,4-bis(((Z)-oct-5-en-1-yl)oxy)butanoate)] | 
